According to patent US5965622A, “Desformoterol and process for its preparation” (Sepracor Inc., priority 1998, dated 1999):
Entries after “also recorded” stand apart in the source; their conditions may differ. Read-outs that look alike come from different tables or passages of the source.

What was measured:
[1] = molecular target: human β1-adrenergic receptor (Homo sapiens, UniProt P08588); assay: binding to human β1-adrenergic receptor (competition curves)
Experimental: (§1) The four isomers of desformoterol, (R,R)-, (S,S)-, (R,S)-, and (S,R)-, and a 1:1 mixture of the (R,R)- and the (S,S)-enantiomers, were screened, in duplicate, at three concentrations (10^-9, 10^-7, 10^-5 M) for binding to human β1 and β2 -adrenergetic receptors. The compounds were then tested at ten concentrations in duplicate in order to obtain full competition curves. Reference compounds were simultaneously tested at eight concentrations.

[2] = molecular target: human β2-adrenergic receptor (Homo sapiens, UniProt P07550); assay: binding to human β2-adrenergic receptor (competition curves); conditions: for adrenergic receptor agonist selectivity, in words: binding studies
Experimental: as §1

[3] = when inhaled; background statement; cited from earlier work
[4] = stability of desformoterol according to conditions; type: physicochemical; conditions: pH of the environment
Source text: It has been observed that the stability of desformoterol can vary according to conditions.

[5] = human β1-adrenergic receptor, ten concentrations in duplicate (reference compounds eight), read-out: IC50 β1
[6] = human β2-adrenergic receptor, ten concentrations in duplicate (reference compounds eight), read-out: IC50 β2

Sequence of human β2-adrenergic receptor (P07550 whole entry): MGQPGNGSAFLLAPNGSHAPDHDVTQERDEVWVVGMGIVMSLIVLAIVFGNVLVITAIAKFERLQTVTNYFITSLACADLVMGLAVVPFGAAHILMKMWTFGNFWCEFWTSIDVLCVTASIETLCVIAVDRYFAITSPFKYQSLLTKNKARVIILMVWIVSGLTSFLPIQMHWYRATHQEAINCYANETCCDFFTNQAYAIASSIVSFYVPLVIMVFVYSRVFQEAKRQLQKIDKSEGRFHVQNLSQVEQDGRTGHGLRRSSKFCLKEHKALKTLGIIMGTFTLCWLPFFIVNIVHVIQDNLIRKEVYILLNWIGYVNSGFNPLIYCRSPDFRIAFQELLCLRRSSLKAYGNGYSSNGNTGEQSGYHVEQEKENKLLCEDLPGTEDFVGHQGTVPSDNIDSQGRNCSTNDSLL
Sequence of human β1-adrenergic receptor (P08588 whole entry): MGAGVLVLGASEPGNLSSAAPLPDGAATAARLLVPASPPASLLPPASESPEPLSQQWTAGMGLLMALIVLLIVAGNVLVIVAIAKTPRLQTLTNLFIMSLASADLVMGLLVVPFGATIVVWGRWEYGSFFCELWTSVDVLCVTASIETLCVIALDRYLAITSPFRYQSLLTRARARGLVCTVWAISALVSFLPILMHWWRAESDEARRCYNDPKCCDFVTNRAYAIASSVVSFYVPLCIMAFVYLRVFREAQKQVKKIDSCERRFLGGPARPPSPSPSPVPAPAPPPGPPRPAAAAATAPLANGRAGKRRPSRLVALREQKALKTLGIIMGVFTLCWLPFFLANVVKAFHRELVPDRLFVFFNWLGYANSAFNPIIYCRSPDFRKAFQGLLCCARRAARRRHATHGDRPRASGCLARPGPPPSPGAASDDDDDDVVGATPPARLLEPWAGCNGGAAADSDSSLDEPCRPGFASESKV

| Compound | adrenergic receptor agonist selectivity, in words [2] | binding/affinity at β2 site, in words ([2]; human β2-adrenergic receptor) | IC50 [2, 6] [µM] | β1/β2 Selectivity ([2]; ratio of IC50 values β1/β2) | binding/affinity at β1 site, in words ([1]; human β1-adrenergic receptor) | further results |
| --- | --- | --- | --- | --- | --- | --- |
| COc1ccc(C[C@@H](C)NC[C@H](O)c2ccc(O)c(N)c2)cc1 (relative stereo) [(R,R)-/(S,S)-Racemate of Desformoterol] | highly selective β-adrenergic receptor agonists | significant binding only at the β2 -site | 0.0813 | 63 | – | IC50 [1, 5]: 5.14 µM |
| COc1ccc(C[C@@H](C)NC[C@H](O)c2ccc(O)c(NC=O)c2)cc1 (relative stereo) [Formoterol] | – | – | – | – | – | bronchodilating effect, in words [3]: long lasting bronchodilating effect |
| COc1ccc(C[C@@H](C)NC[C@H](O)c2ccc(O)c(N)c2)cc1 [(R,R)-Desformoterol, (R,R)-3-amino-4-hydroxy-α-[[[2-(4-methoxyphenyl)-1-methylethyl]amino]methyl]-benzenemethanol] | highly selective β-adrenergic receptor agonists | significant binding primarily at the β2 -site | – | 89 | – | IC50 [1]: 3.18 µM; IC50 [2]: 0.0356 µM; selectivity (β1/β2) for the β2-receptor ([2]; ratio of IC50 values β1/β2): approximately 89 fold |
| COc1ccc(C[C@H](C)NC[C@H](O)c2ccc(O)c(N)c2)cc1 [(R,S)-Desformoterol] | – | – | 3.14 | < 1 | Neither (R,S)- nor (S,R)-desformoterol showed high affinity for the β1 receptor; also recorded: comparable to that of atenolol at the β1 -site | IC50 [1, 5]: 1.79 µM |
| COc1ccc(C[C@@H](C)NC[C@@H](O)c2ccc(O)c(N)c2)cc1 [(S,R)-Desformoterol] | – | – | 1.89 | – | Neither (R,S)- nor (S,R)-desformoterol showed high affinity for the β1 receptor | inhibition at 10 µM ([1]; at 10^-5 M): 22% |
| COc1ccc(C[C@H](C)NC[C@@H](O)c2ccc(O)c(N)c2)cc1 [(S,S)-Desformoterol] | – | lacked affinity for both β-adrenergic sites | – | < 6 | lacked affinity for both β-adrenergic sites | IC50 [1]: 64.7 µM; IC50 [2]: > 10 µM |
| COc1ccc(CC(C)NCC(O)c2ccc(O)c(N)c2)cc1 (stereo not drawn) [desformoterol, 3-Amino-4-hydroxy-α-[[[2-(4-methoxyphenyl)-1-methylethyl]amino]methyl]-benzenemethanol] | highly selective β2 -adrenergic receptor agonist | – | – | – | – | pH of maximum stability [4]: 2 |
